# In US10995068B2, “Synthetic sphingolipid-like molecules, drugs, methods of their synthesis and methods of treatment” (The Regents of the University of California, priority 2015, dated 2021):
# Experiments:
# [1] = system: mPCE subcutaneous isografts; assay: mPCE subcutaneous prostate isografts; type: in vivo; conditions: C57BL/6 mice
# Experimental: The ability of starvation-inducing sphingolipid-like drugs to affect the growth of slow growing or autochthonous neoplasms was also evaluated. In C57BL/6 mice bearing mPCE subcutaneous isografts, 60 mg/kg SH-BC-893 was given daily by gavage and slowed tumor growth by 60% similar to results with SW620 xenografts dosed with 20 mg/kg i.p. (FIGS. 53G-I and 65I). At 120 mg/kg, SH-BC-893 inhibited prostate tumor growth by more than 90% (FIG. 65I). […] Akt activity was slightly elevated by SH-BC-893 consistent with loss of TORC1-mediated negative feedback. Thus, sphingolipid-like compounds, such as SH-BC-893, are effective against neoplasms with distinct molecular defects and metabolic characteristics.
# In vivo studies. Experiments conducted in mice were performed in accordance with the Institutional Animal Care and Use Committee of University of California, Irvine following a power analysis conducted in consultation with the Biostatistics Shared Resource of Chao Family Comprehensive Cancer Center at UCI. […] Tumor volume was calculated using the formula, volume (mm^3)=length [mm]×(width [mm])^2×0.52; BLI was measured using an IVIS imaging system (Xenogen). […] Blood chemistry was analyzed by IDEXX BioResearch and complete blood counts were performed using a Hemavet hematology system.
# colon cancer cells SW620 = assay: Colony formation assay, SW620; type: cell-based, human; conditions: anchorage-independent growth, colonies counted after 12 days
# Experimental: The difference in sensitivity stems from the inability of neoplastic cells to adapt to decreases of metabolism.
# Cell analysis: Viability and 4F2hc expression are determined by vital dye exclusion and flow cytometry. Oxygen consumption is measured with an XF24 Extracellular Flux Analyzer (Seahorse Bioscience); values are normalized to total protein. Confocal microscopy is performed on either a Zeiss LSM780 or a Nikon Eclipse Ti; vacuolation was monitored using a Nikon TE2000-S equipped with DIC filters. Anchorage-independent growth of SW620 cells is measured in DMEM-10 containing 0.35% agarose with a 0.5% agarose bottom layer. PBMNCs are obtained from the normal blood donor program run by the CTSA-supported Institute for Clinical and Translational Science at UCI under IRB protocols 2015-1883 (Edinger) and 2001-2058 (ICTS). […] Plates were incubated at 37° C. in a humidified atmosphere containing 5% CO2 and colonies were counted after 12 days.
# Cell culture and reagents. […] Cell viability was measured by vital dye exclusion using either propidium iodide or DAPI at 1 μg/ml. Analysis of cell surface 4F2hc levels with PE-conjugated anti-CD98 was restricted to viable cells as determined by DAPI exclusion. Anchorage-independent growth of SW620 cells was measured in DMEM-10 containing 0.35% low melt agarose with a 0.5% agarose bottom layer. […]
smiles,measurement,setting,value
"CCCCCCCCc1ccc([C@H]2CCN[C@@H]2CO)cc1.Cl [Compound 5, (2S,3R)-2-(hydroxymethyl)-3-(4-octylphenyl)Pyrrolidinium chloride]",slowing of tumor growth,[1]; 60 mg/kg daily by gavage,60%
same,inhibition of prostate tumor growth,[1]; 120 mg/kg,more than 90%
same,sensitivity in colony formation assays,colon cancer cells SW620,highly sensitive
